According to article PMC12202571, “Reversal of ABCG2-mediated drug resistance by tinodasertib (ETC-206)” (Frontiers in Pharmacology, 2025):

Columns and labels:
ABCG2 [1] = target: T1, ABCG2 (Homo sapiens, UniProt Q9UNQ0)
T1 sequence (Q9UNQ0 1-655): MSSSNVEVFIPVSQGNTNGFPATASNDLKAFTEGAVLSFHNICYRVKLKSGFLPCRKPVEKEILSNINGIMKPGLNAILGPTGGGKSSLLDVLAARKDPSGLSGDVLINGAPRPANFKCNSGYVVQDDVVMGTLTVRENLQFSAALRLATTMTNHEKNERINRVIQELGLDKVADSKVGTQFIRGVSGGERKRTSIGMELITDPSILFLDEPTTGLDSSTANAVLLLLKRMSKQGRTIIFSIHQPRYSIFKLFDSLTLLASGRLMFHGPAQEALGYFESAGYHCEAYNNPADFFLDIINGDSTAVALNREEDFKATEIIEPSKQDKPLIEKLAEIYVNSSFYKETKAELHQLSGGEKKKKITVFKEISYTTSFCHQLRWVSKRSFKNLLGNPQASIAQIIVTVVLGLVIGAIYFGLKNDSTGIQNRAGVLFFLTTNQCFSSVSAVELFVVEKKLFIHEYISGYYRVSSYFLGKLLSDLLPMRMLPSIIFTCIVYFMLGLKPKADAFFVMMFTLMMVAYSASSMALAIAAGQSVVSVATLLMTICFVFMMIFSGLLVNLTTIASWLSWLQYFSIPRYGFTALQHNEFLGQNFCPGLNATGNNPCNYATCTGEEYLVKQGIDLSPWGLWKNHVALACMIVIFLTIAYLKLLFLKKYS

ABCG2 [2] = target: T2, ABCG2 (Homo sapiens, UniProt Q9UNQ0); assay: vanadate-sensitive ATPase assay in ABCG2 membrane vesicles (colorimetric phosphate); supported by [3H]-mitoxantrone efflux inhibition in cells; type: biochemical
T2 construct: ABCG2-containing membrane vesicles

Row | Compound | [3H]-mitoxantrone accumulation and efflux in ABCG2-overexpressing versus parenta (ABCG2 [1]) | IC50 (ABCG2 [2])
1 | O=C1c2c(O)ccc(O)c2C(=O)c2c(NCCNCCO)ccc(NCCNCCO)c21 [mitoxantrone] | Efflux assays demonstrated a substantial reduction in [^3H]-mitoxantrone efflux from ABCG2-overexpressing cells | 
2 | N#Cc1ccc(-c2cnc3ccc(-c4ccc(C(=O)N5CCOCC5)cc4)cn23)cc1 [tinodasertib] |  | ~2 µM
